# Assay results from patent US12534496B2, “Polymorphic forms of Cyclo (-His-Pro) and methods of use to treat kidney disease” (NovMetaPharma Co., Ltd., priority 2018, dated 2026).
# Entries after “also recorded” stand apart in the source; their conditions may differ.
# Tests used:
# Format in all cases: physicochemical
# [1] = Solvent solubility screen of CHP lyophile
# Experimental: To a known mass of CHP lyophile (10 mg, from Section 5.2.2), 100 μL of the appropriate solvent was added and if solid remained the vial was gently heated to ˜40° C. to aid dissolution. Solvent addition continued until the material fully dissolved or 2 mL had been added (<5 mg/mL). The samples were uncapped and allowed to evaporate at ambient. The solvents used in the solubility screen can be found in Table 21.
# [2] = Competitive slurry of Pattern 1 and Pattern 2 in EtOH/water/MtBE (form stability, XRPD)
# Experimental: In order to study form stability in EtOH/water/MtBE, competitive repining experiments were carried out at 50° C., 35° C., and 5° C. respectively, by adding 100 mg of anhydrous Pattern 1 solid and 100 mg of Pattern 2 solid.
# [3] = 8-week stability assessment at 40 °C/75% RH (XRPD, appearance, chiral HPLC); conditions: for Chiral Purity: chiral HPLC
# Experimental: XRPD analysis was carried out on a PANalytical X'pert pro, scanning the samples between 3 and 35° 2θ. The material was gently ground to release any agglomerates and loaded onto a multi-well plate with Kapton or Mylar polymer film to support the sample. The multi-well plate was then placed into the diffractometer and analyzed using Cu K radiation (α1λ=1.54060 Å; α2=1.54443 Å; β=1.39225 Å; α1: α2 ratio=0.5) running in transmission mode (step size 0.0130° 2θ) using 40 kV/40 mA generator settings.
# 13. Chiral HPLC Column: Daicel IC (5.0 um, 250*4.6 mm) Column Temperature: 30° C. Injection Volume: 5 μL Flow Rate: 1.0 mL/min Mobile Phase A: 0.01% DEA in n-Hexane Mobile Phase B: EtOH:MeOH=2:8 (v/v) Diluent: Acetonitrile PDA Range: 220 nm Gradient program: […]
# [4] = 1 day stability assessment at 40 °C/75% RH (XRPD); conditions: 2 hours at 40 °C/75% RH
smiles,measurement,setting,value
"O=C1N[C@@H](Cc2cnc[nH]2)C(=O)N2CCC[C@@H]12 [CHP Lyophile, Cyclo (-His-Pro)]",Approximate Solubility,[1]; 1-Butanol,≥5000 µg/mL
same,Approximate Solubility,[1]; 2-Butanol,≥5000 µg/mL
same,Approximate Solubility,[1]; Dichloromethane,≤5000 µg/mL
same,Approximate Solubility,[1]; Ethyl Acetate,≤5000 µg/mL
same,Approximate Solubility,[1]; Ethyl Formate,≤5000 µg/mL
same,Approximate Solubility,[1]; Heptane,≤5000 µg/mL
same,Approximate Solubility,[1]; Isopropyl Acetate,≤5000 µg/mL
same,Approximate Solubility,[1]; Methylethyl Ketone,≤5000 µg/mL
same,Approximate Solubility,[1]; Methylisobutyl Ketone,≤5000 µg/mL
same,Approximate Solubility,[1]; Nitromethane,≤5000 µg/mL
same,Approximate Solubility,[1]; THF,≤5000 µg/mL
same,Approximate Solubility,[1]; acetone,≤5000 µg/mL
same,Approximate Solubility,[1]; acetonitrile,≤5000 µg/mL
same,Approximate Solubility,[1]; tert-Butylmethyl Ether,≤5000 µg/mL
O=C1N[C@@H](Cc2c[nH]cn2)C(=O)N2CCC[C@@H]12 [Pattern 1 and Pattern 2],XRPD tracking,"[2]; (EtOH:H2O = 9:1):MTBE = 1:2, 5 °C, 0 h",Pattern 2
same,XRPD tracking,"[2]; (EtOH:H2O = 9:1):MTBE = 1:2, 5 °C, 2 h",Pattern 2
same,XRPD tracking,"[2]; (EtOH:H2O = 9:1):MTBE = 1:2, 5 °C, 6 d",Pattern 2
same,XRPD tracking,"[2]; (EtOH:H2O = 9:1):MTBE = 1:2, 5 °C, 7 d",Pattern 2
same,XRPD tracking,"[2]; (EtOH:H2O = 9:1):MTBE = 1:2, 35 °C, 0 h",Pattern 2
same,XRPD tracking,"[2]; (EtOH:H2O = 9:1):MTBE = 1:2, 35 °C, 2 h",Pattern 2
same,XRPD tracking,"[2]; (EtOH:H2O = 9:1):MTBE = 1:2, 50 °C, 0 h",Pattern 2
same,XRPD tracking,"[2]; (EtOH:H2O = 9:1):MTBE = 1:2, 50 °C, 2 h",Pattern 2
same,XRPD tracking,"[2]; (EtOH:H2O = 9:1):MTBE = 1:3, 5 °C, 0 h",Pattern 2
same,XRPD tracking,"[2]; (EtOH:H2O = 9:1):MTBE = 1:3, 5 °C, 2 h",Pattern 2
same,XRPD tracking,"[2]; (EtOH:H2O = 9:1):MTBE = 1:3, 5 °C, 6 d",Pattern 2
same,XRPD tracking,"[2]; (EtOH:H2O = 9:1):MTBE = 1:3, 5 °C, 7 d",Pattern 2
same,XRPD tracking,"[2]; (EtOH:H2O = 9:1):MTBE = 1:3, 35 °C, 0 h",Pattern 2
same,XRPD tracking,"[2]; (EtOH:H2O = 9:1):MTBE = 1:3, 35 °C, 2 h",Pattern 2
same,XRPD tracking,"[2]; (EtOH:H2O = 9:1):MTBE = 1:3, 35 °C, 6 d",Pattern 2
same,XRPD tracking,"[2]; (EtOH:H2O = 9:1):MTBE = 1:3, 35 °C, 7 d",Pattern 2
same,XRPD tracking,"[2]; (EtOH:H2O = 9:1):MTBE = 1:3, 50 °C, 0 h",Pattern 2
same,XRPD tracking,"[2]; (EtOH:H2O = 9:1):MTBE = 1:3, 50 °C, 2 h",Pattern 2
same,XRPD tracking,"[2]; (EtOH:H2O = 9:1):MTBE = 1:3, 50 °C, 6 d",Pattern 2
same,XRPD tracking,"[2]; (EtOH:H2O = 9:1):MTBE = 1:3, 50 °C, 7 d",Pattern 2
same,XRPD tracking,"[2]; (EtOH:H2O = 9:1):MTBE = 2.5:0.5, 5 °C, 0 h",Pattern 2
same,XRPD tracking,"[2]; (EtOH:H2O = 9:1):MTBE = 2.5:0.5, 5 °C, 2 h",Pattern 2
same,XRPD tracking,"[2]; (EtOH:H2O = 9:1):MTBE = 2.5:0.5, 5 °C, 6 d",Pattern 2
same,XRPD tracking,"[2]; (EtOH:H2O = 9:1):MTBE = 2.5:0.5, 5 °C, 7 d",Pattern 2
same,XRPD tracking,"[2]; (EtOH:H2O = 9:1):MTBE = 2.5:0.5, 35 °C, 0 h",Pattern 2
same,XRPD tracking,"[2]; (EtOH:H2O = 9:1):MTBE = 2.5:0.5, 35 °C, 2 h",Pattern 2
same,XRPD tracking,"[2]; (EtOH:H2O = 9:1):MTBE = 2.5:0.5, 35 °C, 6 d",Pattern 2
same,XRPD tracking,"[2]; (EtOH:H2O = 9:1):MTBE = 2.5:0.5, 35 °C, 7 d",Pattern 2
same,XRPD tracking,"[2]; (EtOH:H2O = 9:1):MTBE = 2.5:0.5, 50 °C, 0 h",Pattern 2
same,XRPD tracking,"[2]; (EtOH:H2O = 9:1):MTBE = 2.5:0.5, 50 °C, 2 h",Pattern 2
same,XRPD tracking,"[2]; (EtOH:H2O = 9:1):MTBE = 2.5:0.5, 50 °C, 6 d",Pattern 2
same,XRPD tracking,"[2]; (EtOH:H2O = 9:1):MTBE = 3:0, 5 °C, 0 h",Pattern 2
same,XRPD tracking,"[2]; (EtOH:H2O = 9:1):MTBE = 3:0, 5 °C, 2 h",Pattern 2
same,XRPD tracking,"[2]; (EtOH:H2O = 9:1):MTBE = 3:0, 5 °C, 6 d",Pattern 2
same,XRPD tracking,"[2]; (EtOH:H2O = 9:1):MTBE = 3:0, 5 °C, 7 d",Pattern 2
same,XRPD tracking,"[2]; (EtOH:H2O = 9:1):MTBE = 3:0, 35 °C, 0 h",Pattern 2
same,XRPD tracking,"[2]; (EtOH:H2O = 9:1):MTBE = 3:0, 35 °C, 2 h",Pattern 2
same,XRPD tracking,"[2]; (EtOH:H2O = 9:1):MTBE = 3:0, 35 °C, 6 d",Pattern 2
same,XRPD tracking,"[2]; (EtOH:H2O = 9:1):MTBE = 3:0, 35 °C, 7 d",Pattern 2
same,XRPD tracking,"[2]; (EtOH:H2O = 9:1):MTBE = 3:0, 50 °C, 0 h",Pattern 2
"O=C1N[C@@H](Cc2cnc[nH]2)C(=O)N2CCC[C@@H]12 [Pure Pattern 1, Cyclo (-His-Pro)]",Appearance,[3]; 2-week,Faint beige
same,Appearance,[3]; 4-week,Faint beige
same,XRPD form after storage,[3]; 4 weeks,remained as pattern 2
same,Appearance,[3]; 8-week,Faint beige
same,XRPD form after storage,[3]; 8 weeks,remained as pattern 2
same,Appearance,[3]; Initial,Faint beige
same,Chiral Purity,[3]; 2-week,99.9%
same,Chiral Purity,[3]; 4-week,99.9%
same,Chiral Purity,[3]; 8-week,99.9%
same,Chiral Purity,[3]; Initial,>99.9%
same,XRPD form after storage,[3]; two weeks (14 days),converted to pattern 2; also recorded: converting to the hydrated pattern 2
same,XRPD form after storage,[4]; listed as Pure pattern 1,convert to pattern 2
same,XRPD form after storage,[4]; listed as pure pattern 1,converts to pattern 2
